Active and inactive are the calls of the source. The calls are words filed in the database; no cut-off is given here.
How the values were obtained:
Assay type in all cases: functional, cell-based
[1] = test system: Glutamate receptor ionotropic, kainate 2 (Homo sapiens), Q13002 [L439C]; experiment: Agonist activity at MAG conjugated light activated iGluR6 L439C mutant expressed in human HEK293 cells assessed as increase inward currents by whole cell patch clamp method
[2] = test system: Glutamate receptor ionotropic, kainate 2 (Homo sapiens), Q13002 [L439C]; experiment: Agonist activity at iGluR6 L439C mutant expressed in human HEK293 cells assessed as increase in intracellular Ca2+ levels illuminated at 500 nm wavelength by […] staining based fluorimetric method
[3] = test system: Glutamate receptor ionotropic, kainate 2 (Homo sapiens), Q13002 [L439C]; experiment: Agonist activity at iGluR6 L439C mutant expressed in human HEK293 cells assessed as increase in intracellular Ca2+ levels illuminated at 380 nm wavelength by […] staining based fluorimetric method

Sequence of Glutamate receptor ionotropic, kainate 2 (Homo sapiens), Q13002 [L439C] (Q13002 whole entry L439C): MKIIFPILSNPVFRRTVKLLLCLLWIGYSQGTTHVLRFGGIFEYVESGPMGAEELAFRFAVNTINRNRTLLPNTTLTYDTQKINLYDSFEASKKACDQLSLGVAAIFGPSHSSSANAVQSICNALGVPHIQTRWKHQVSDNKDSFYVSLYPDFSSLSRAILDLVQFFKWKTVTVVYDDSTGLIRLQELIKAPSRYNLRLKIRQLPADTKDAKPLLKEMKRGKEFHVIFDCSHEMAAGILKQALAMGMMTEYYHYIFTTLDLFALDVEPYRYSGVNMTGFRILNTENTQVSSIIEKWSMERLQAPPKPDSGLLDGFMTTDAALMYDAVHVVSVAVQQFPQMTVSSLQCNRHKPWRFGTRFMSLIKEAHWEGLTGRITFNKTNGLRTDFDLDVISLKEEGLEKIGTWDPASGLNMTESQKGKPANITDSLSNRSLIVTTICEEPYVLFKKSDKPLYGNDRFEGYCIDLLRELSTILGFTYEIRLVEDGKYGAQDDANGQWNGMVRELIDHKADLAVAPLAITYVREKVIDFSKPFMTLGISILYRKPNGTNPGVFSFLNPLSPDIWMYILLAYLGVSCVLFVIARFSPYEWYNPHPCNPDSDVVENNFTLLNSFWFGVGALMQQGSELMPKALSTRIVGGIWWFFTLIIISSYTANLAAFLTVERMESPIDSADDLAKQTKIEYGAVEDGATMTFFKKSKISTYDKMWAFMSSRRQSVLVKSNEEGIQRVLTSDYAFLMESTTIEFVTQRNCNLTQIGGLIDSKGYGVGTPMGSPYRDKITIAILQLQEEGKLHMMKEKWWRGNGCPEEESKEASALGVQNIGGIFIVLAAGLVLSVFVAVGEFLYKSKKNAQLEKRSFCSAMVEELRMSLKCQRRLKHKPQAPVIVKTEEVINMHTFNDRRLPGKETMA

| Compound | Activity [1] | Activity [2] | Activity [3] |
| --- | --- | --- | --- |
| N[C@@H](C[C@@H](CCCC(=O)NCC(=O)Nc1ccccc1)C(=O)O)C(=O)O | Active | – | – |
| N[C@@H](CCC(=O)O)C(=O)O | Active | – | – |
| N[C@@H](C[C@@H](CCCC(=O)NCC(=O)Nc1ccc(/N=N/c2ccc(NC(=O)CN3C(=O)C=CC3=O)cc2)cc1)C(=O)O)C(=O)O | – | inactive | Active |

— ChEMBL document CHEMBL1221178, “Allosteric control of an ionotropic glutamate receptor with an optical switch” (Nat Chem Biol, 2006)
